Where a name gives a salt, the structure may show the parent alone.
Biological target: T1, aldose reductase (Rattus norvegicus, UniProt P07943)
T1 construct: rat lens homogenate used as a source of enzyme; from tissue; host or cells: rat lens homogenate
Assay: in vitro inhibition of aldose reductase from rat lens homogenate (DL-glyceraldehyde substrate, NADPH, spectrophotometry at 340 nm)
Type: biochemical
Conditions: for inhibition at 10 µM: concentration 10^-5 mol/liter; for inhibition at 0.1 µM: concentration 10^-7 mol/liter; for inhibition at 0.01 µM: concentration 10^-8 mol/liter; for inhibition at 100 µM: concentration 10^-4 mol/liter; for inhibition at 1 µM: concentration 10^-6 mol/liter; for IC50: n = average of 3 determinations (Example 132: average of 2 determinations)
Method: The inhibitory activity on aldose reductase is evaluated in vitro starting from a rat lens homogenate used as a source of enzyme. The substrate used is DL-glyceraldehyde, which is converted by aldose reductase to glycerol in the presence of NADPH (*). This reaction is followed by spectrophotometry at 340 nm in the absence and in the presence of the inhibitors to be tested, the variation in optical density being proportional to the oxidation of the reduced coenzyme.
The results are shown in Table I below and represent, for different examples, the percentage inhibition of the enzymatic activity, relative to the control activity, as a function of the different concentrations (mol.l^-1) used.

[1] = read-out: Inhibition relative to the control activity, %

SMILES	inhibition at 10 µM [1] [%]	inhibition at 0.1 µM [1] [%]	inhibition at 0.01 µM [1] [%]	inhibition at 100 µM [1] [%]	inhibition at 1 µM [1] [%]	inhibition at 0.001 µM (concentration 10^-9 mol/liter, read-out: Inhibition relative to the control activity, %) [%]	IC50 [nM]
O=C(O)CN1C(=S)CSc2cc(Cl)ccc21 [Example 127, 7-Chloro-2H-1,4-benzothiazine-3-thione-4-acetic acid]	98	93	28	–	–	–	–
O=C(O)CN1C(=O)CSc2ccccc21 [Example 124, 2H-1,4-Benzothiazin-3-one-4-acetic acid]	86	10	–	97	–	–	–
O=C(O)CN1C(=S)CSc2cc(Cl)c(C(F)(F)F)cc21 [Example 129, 6-Trifluoromethyl-7-chloro-2H-1,4-benzothiazine-3-thione-4-acetic acid]	74	–	5	–	–	–	–
O=C(O)CN1C(=O)CSc2ncccc21 [Example 110, Pyrido[2,3-b]thiazin-2(3H)-one-1-acetic acid]	82	11	4	95	37	9	–
CC1Sc2ccccc2N(CC(=O)O)C1=O (stereo not shown) [Example 125, 2-Methyl-2H-1,4-benzothiazin-3-one-4-acetic acid]	91	12	–	99	–	–	–
O=C(O)CN1C(=S)CSc2cc(F)ccc21 [Example 117, 7-Fluoro-2H-1,4-benzothiazine-3-thione-4-acetic acid]	100	65	5	100	–	–	82 ± 1
O=C(O)CN1C(=O)CNc2ncccc21 [Example 114, Pyrido[2,3-b][1,4]pyrazin-2(3H)-one-1-acetic acid hydrochloride]	86	–	–	95	6	–	–
O=C(O)CN1C(=O)CSc2cc(Cl)ccc21 [Example 121, 7-Chloro-2H-1,4-benzothiazin-3-one-4-acetic acid]	92	16	–	97	–	–	–
O=C(O)CN1C(=O)CSc2ccc(F)cc21 [Example 118, 6-Fluoro-2H-1,4-benzothiazin-3-one-4-acetic acid]	91	–	–	98	10	–	–
O=C(O)CN1C(=S)COc2ccc(F)cc21 [Example 152, 6-Fluoro-2H-1,4-benzoxazine-3-thione-4-acetic acid]	99	54	–	100	–	–	86 ± 4
O=C(O)CN1C(=O)CSc2ccc(C(F)(F)F)cc21 [Example 115, 6-Trifluoromethyl-2H-1,4-benzothiazin-3-one-4-acetic acid]	57	3	–	90	–	–	–
O=C(O)CN1C(=S)CCc2cc(Cl)ccc21 [Example 154, 6-Chloro-3,4-dihydroquinoline-2-thione-1-acetic acid]	94	56	29	–	–	–	91 ± 15
O=C(O)CN1C(=O)CSc2cc(F)ccc21 [Example 116, 7-Fluoro-2H-1,4-benzothiazin-3-one-4-acetic acid]	95	–	–	100	25	–	–
CC1(c2ccccn2)Sc2ccccc2N(CC(=O)O)C1=O (stereo not shown) [Example 151, 2-Methyl-2-(pyridin-2'-yl)-2H-1,4-benzothiazin-3-one-4-acetic acid]	73	16	–	96	–	–	–
CC1Sc2ccc(F)cc2N(CC(=O)O)C1=O (stereo not shown) [Example 136, 6-Fluoro-2-methyl-2H-1,4-benzothiazin-3-one-4-acetic acid]	95	30	11	–	–	–	–
O=C(O)CN1C(=S)CSc2ccccc21 [Example 133, 2H-1,4-Benzothiazine-3-thione-4-acetic acid]	98	69	18	–	–	–	54 ± 5
O=C(O)CN1C(=O)CSc2cc(Cl)c(C(F)(F)F)cc21 [Example 123, 6-Trifluoromethyl-7-chloro-2H-1,4-benzothiazin-3-one-4-acetic acid]	81	0	–	97	–	–	–
CC1Sc2ccccc2N(CC(=O)O)C1=S (stereo not shown) [Example 132, 2-Methyl-2H-1,4-benzothiazine-3-thione-4-acetic acid]	95	92	16	–	–	–	42 ± 13
CC1Sc2ccc(F)cc2N(CC(=O)O)C1=S (stereo not shown) [Example 137, 6-Fluoro-2-methyl-2H-1,4-benzothiazine-3-thione-4-acetic acid]	94	80	13	–	–	–	–
O=C(O)CN1C(=S)CSc2ccc(F)cc21 [Example 119, 6-Fluoro-2H-1,4-benzothiazine-3-thione-4-acetic acid]	98	67	22	100	–	–	46 ± 2
O=C(O)CN1C(=S)C(c2ccccc2)Sc2ccccc21 (stereo not shown) [Example 130, 2-Phenyl-2H-1,4-benzothiazine-3-thione-4-acetic acid]	99	95	17	–	–	–	–
O=C(O)CN1C(=O)CSc2nc(Cl)ccc21 [Example 111, 6-Chloropyrido[2,3-b]thiazin-2(3H)-one-1-acetic acid]	80	5	–	96	–	–	–

— patent US4755509A, “Heterocyclic aldose reductase inhibitors and methods of using them” (Carbipem, priority 1984, dated 1988)
